Reference: patent publication EP0666847B1 (priority 1993, dated 1995)
Where a name gives a salt, the structure may show the parent alone.

What was measured:
5-HT1Dβ receptor [1] = target: T1, 5-HT1Dβ receptor (Homo sapiens, UniProt P28222); assay: biochemical; type: binding; details: for 5-HT1Dβ/5HT1A: selectivity ratio, 5-HT1A binding with 3H-8-OH-DPAT, 5-HT1Dβ with 3H-5HT; for Ki: 3H-5HT, membranes of recombinant cells, 15 minute incubation at 37°C
T1 construct: expressed in transfected cells
Experimental: Increasing levels of the test compound were incubated with the radioligand and the membrane homogenates prepared from the recombinant cells. After a 15 minute incubation at 37°C, the incubation was terminated by vacuum filtration. The filters were washed with buffer and the filters were counted for radioactivity using liquid scintillation spectrometry.

5-HT1Dβ receptor [2] = target: T1, 5-HT1Dβ receptor; assay: Inhibition of forskolin-stimulated adenylate cyclase (cAMP radioimmunoassay) in 5-HT1Dβ-presenting CHO cells; type: cell-based
Experimental: CAMP levels were determined using a radioimmunoassay kit containing antibody specific for cAMP and radioiodinated cAMP. The amount of the compound that inhibited 50% of the forskolin-stimulated adenylate cyclase activity was determined from the inhibition curve data subjected to computer assisted analysis (Figure 1).

T1 sequence (P28222 whole entry): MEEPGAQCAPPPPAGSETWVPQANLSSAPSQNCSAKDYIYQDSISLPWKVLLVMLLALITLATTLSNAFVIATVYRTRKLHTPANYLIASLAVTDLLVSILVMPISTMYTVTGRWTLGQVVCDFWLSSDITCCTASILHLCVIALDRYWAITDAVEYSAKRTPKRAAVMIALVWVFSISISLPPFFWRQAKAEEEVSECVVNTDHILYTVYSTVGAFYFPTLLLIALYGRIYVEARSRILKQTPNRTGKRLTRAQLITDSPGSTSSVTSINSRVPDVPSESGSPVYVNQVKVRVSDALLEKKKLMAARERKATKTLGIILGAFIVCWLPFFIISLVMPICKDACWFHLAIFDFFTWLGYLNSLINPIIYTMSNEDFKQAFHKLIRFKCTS

SMILES: CCCCCCCCCOc1ccc2[nH]cc(CCN)c2c1 [Example 4, 3-(2-aminoethyl)-5-nonyloxyindole oxalate]
- 5-HT1Dβ/5HT1A (5-HT1Dβ receptor [1]): 260

SMILES: Cl.NCCc1c[nH]c2ccc(OCCCCCCCCO)cc12 [Example 5, 3-(2-aminoethyl)-5-(8-hydroxyoctyloxy)-indole hydrochloride]
- Ki (5-HT1Dβ receptor [1]): 0.3 nM
- 5-HT1Dβ/5HT1A (5-HT1Dβ receptor [1]): 119
- EC50 (5-HT1Dβ receptor [2]): 200 nM
- inhibition at 0.001 µM (5-HT1Dβ receptor [2]; CHO, read-out: % Inhib. cAMP): 0%
- inhibition at 0.01 µM (5-HT1Dβ receptor [2]; CHO, read-out: % Inhib. cAMP): 11%
- inhibition at 0.1 µM (5-HT1Dβ receptor [2]; CHO, read-out: % Inhib. cAMP): 33%
- inhibition at 1 µM (5-HT1Dβ receptor [2]; CHO, read-out: % Inhib. cAMP): 92%

SMILES: CCOCCCCCCOc1ccc2[nH]cc(CCN)c2c1 [Example 8, 3-(2-aminoethyl)-5-(6-ethyloxyhexyloxy)-indole hydrochloride]
- Ki (5-HT1Dβ receptor [1]): 0.4 nM
- 5-HT1Dβ/5HT1A (5-HT1Dβ receptor [1]): 180

SMILES: CCCCOCCCCOc1ccc2[nH]cc(CCN)c2c1 [Example 9, 3-(2-aminoethyl)-5-(4-butyloxybutyloxy)-indole hydrochoride]
- Ki (5-HT1Dβ receptor [1]): 2.5 nM
- 5-HT1Dβ/5HT1A (5-HT1Dβ receptor [1]): 30
